Experimental findings from US10668067B2, “Pyridine sulfonamides” (AMGEN INC., priority 2016, dated 2020) are described below.

human Nav1.7, sequence (Q15858 whole entry): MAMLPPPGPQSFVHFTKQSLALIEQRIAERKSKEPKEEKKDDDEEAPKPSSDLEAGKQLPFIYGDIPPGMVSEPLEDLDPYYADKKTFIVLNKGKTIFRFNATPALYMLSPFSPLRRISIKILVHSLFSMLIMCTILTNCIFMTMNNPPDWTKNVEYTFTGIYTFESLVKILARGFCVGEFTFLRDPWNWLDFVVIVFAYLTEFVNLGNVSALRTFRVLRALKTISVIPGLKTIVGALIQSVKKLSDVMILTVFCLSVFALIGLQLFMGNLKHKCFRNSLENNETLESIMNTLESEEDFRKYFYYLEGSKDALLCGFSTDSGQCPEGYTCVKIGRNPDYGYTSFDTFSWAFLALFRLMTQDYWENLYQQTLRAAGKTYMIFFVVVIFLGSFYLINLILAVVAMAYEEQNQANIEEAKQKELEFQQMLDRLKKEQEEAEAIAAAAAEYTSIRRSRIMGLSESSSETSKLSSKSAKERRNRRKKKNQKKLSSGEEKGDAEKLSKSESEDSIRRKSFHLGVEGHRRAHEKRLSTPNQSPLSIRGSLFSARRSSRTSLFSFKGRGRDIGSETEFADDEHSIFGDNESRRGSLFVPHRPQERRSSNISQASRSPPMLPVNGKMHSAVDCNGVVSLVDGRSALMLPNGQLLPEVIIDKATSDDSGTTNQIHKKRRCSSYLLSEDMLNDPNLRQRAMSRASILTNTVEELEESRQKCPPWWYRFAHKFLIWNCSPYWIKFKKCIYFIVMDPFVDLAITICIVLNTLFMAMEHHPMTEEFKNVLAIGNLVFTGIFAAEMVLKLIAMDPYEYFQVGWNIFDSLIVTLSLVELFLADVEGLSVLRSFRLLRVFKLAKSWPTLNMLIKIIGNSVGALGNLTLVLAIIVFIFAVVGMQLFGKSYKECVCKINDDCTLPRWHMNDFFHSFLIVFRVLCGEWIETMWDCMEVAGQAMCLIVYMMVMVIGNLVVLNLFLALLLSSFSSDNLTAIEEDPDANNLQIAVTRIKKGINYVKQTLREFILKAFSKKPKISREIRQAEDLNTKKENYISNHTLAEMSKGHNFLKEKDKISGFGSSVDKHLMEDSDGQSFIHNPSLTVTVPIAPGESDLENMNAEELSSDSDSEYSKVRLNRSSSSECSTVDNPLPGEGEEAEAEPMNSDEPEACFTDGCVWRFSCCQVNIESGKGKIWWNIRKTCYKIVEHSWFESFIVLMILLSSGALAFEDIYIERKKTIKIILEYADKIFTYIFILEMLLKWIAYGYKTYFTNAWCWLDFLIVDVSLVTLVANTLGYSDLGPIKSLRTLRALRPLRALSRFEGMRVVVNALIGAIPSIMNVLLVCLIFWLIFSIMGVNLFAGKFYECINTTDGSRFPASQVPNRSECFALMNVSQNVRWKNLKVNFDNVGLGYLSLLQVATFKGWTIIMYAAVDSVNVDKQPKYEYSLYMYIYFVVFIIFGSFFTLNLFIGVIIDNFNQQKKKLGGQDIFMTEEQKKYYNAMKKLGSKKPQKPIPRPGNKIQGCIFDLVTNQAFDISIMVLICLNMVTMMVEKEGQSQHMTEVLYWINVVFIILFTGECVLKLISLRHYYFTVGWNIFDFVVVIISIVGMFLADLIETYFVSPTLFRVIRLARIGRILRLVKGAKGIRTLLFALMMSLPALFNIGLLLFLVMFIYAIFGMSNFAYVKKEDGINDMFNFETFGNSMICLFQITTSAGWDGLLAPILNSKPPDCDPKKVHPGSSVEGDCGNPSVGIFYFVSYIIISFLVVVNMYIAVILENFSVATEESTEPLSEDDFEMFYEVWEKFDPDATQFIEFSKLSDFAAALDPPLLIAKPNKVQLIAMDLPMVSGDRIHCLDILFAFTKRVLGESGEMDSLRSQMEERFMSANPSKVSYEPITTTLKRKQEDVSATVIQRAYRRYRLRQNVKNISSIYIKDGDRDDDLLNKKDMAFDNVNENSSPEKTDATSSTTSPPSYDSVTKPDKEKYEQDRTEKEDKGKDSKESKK

The assay addresses human Nav1.7 (Homo sapiens (Human), UniProt Q15858). In words: Nav 1.7 In Vitro PX Assay (PatchXpress whole cell voltage clamp). It is filed as cell-based. The note with it: in-vitro Nav 1.7 PX data. The procedure: HEK 293 cells stably transfected with human Nav1.7 were recorded in whole cell voltage clamp mode with the PatchXpress automated electrophysiology system (Molecular Devices, LLC, Sunnyvale, Calif.). Compound effects were measured on a partially inactivated state of the sodium channel. Cells were clamped to a holding potential yielding 20 to 50% inactivation. To elicit sodium current, channels were activated by pulsing to −10 mV for 20 msec. This voltage protocol was repeated at a rate of 0.1 Hz throughout the experiment. A single concentration of test compound was applied to cells for a duration of 3 minutes. Peak sodium current was measured at the end of the compound addition period to determine percent inhibition. Three to five cells were tested per concentration, and IC50 curves were fitted to percent inhibition as a function of concentration.
The molecule `CNC(=O)N(c1ccc(S(=O)(=O)Nc2ccon2)cn1)c1cc(Cl)c(-c2ccc(F)c(OCC(F)(F)F)c2)cc1OC` [Example 1-57, 6-((2-chloro-4′-fluoro-5-methoxy-3′-(2,2,2-trifluoroethoxy)-4-biphenylyl)(methylcarbamoyl)amino)-N-3-isoxazolyl-3-pyridinesulfonamide] yielded an IC50 of 24 nM.

Molecule `CNC(=O)N(c1ccc(S(=O)(=O)Nc2ncccn2)cn1)c1cc(F)c(-c2ccc(F)c(Cl)c2)cc1OC` [Example 2-1, 6-((3′-chloro-2,4′-difluoro-5-methoxy-4-biphenylyl)(methylcarbamoyl)amino)-N-2-pyrimidinyl-3-pyridinesulfonamide] gave a concentration for half-maximal inhibition (IC50) of 18 nM.

Regarding `CNC(=O)N(c1ccc(S(=O)(=O)Nc2ccon2)cn1)c1cc(-c2ccc(C)c(Cl)c2)c(Cl)cc1OC` [Example 4-9, 6-((3′,6-dichloro-4-methoxy-4′-methyl-3-biphenylyl)(methylcarbamoyl)amino)-N-3-isoxazolyl-3-pyridinesulfonamide], inhibition was half-maximal at 76 nM (IC50). This IC50 lies about 4.2-fold higher than the previous one.

Take `CNC(=O)N(c1ccc(S(=O)(=O)Nc2ccon2)cn1)c1cc(F)c(-c2cc(Cl)cc(OC)c2)cc1OC` [Example 1-6, 6-((3′-chloro-2-fluoro-5,5′-dimethoxy-4-biphenylyl)(methylcarbamoyl)amino)-N-3-isoxazolyl-3-pyridinesulfonamide]: the midpoint of inhibition, the IC50, lay at 51 nM.

`CNC(=O)N(c1ccc(S(=O)(=O)Nc2ncccn2)cn1)c1cc(F)c(-c2ccc(F)c(OCC(F)(F)F)c2)cc1OC` [Example 1-88, 6-((2,4′-difluoro-5-methoxy-3′-(2,2,2-trifluoroethoxy)-4-biphenylyl)(methylcarbamoyl)amino)-N-2-pyrimidinyl-3-pyridinesulfonamide] showed an IC50 of 40 nM.

`CNC(=O)N(c1ccc(S(=O)(=O)Nc2ccon2)cc1)c1ccc(-c2ccc(Cl)c(C)c2)cc1OC` [Example 9, 4-(1-(4′-chloro-3-methoxy-3′-methyl-[1,1′-biphenyl]-4-yl)-3methylureido)-N-(isoxazol-3-yl)benzenesulfonamide] had a half-maximal inhibitory concentration (IC50) of 400 nM.

Turning to `COc1cc(-c2cccc(C(F)(F)F)c2)c(Cl)cc1N(C(N)=O)c1ccc(S(=O)(=O)Nc2ccon2)cn1` [Example 5-1, 6-(1-(2-chloro-5-methoxy-3′-(trifluoromethyl)-[1,1′-biphenyl]-4-yl)ureido)-N-(isoxazol-3-yl)pyridine-3-sulfonamide], half-maximal inhibition (IC50) was put at 7 nM. Against the preceding molecule, the IC50 is about 57-fold lower.

Turning to `CNC(=O)N(c1ccc(S(=O)(=O)Nc2ncccn2)cn1)c1cc(Cl)c(-c2ccc(F)c(OC(F)(F)F)c2)cc1OC` [Example 2-10, 6-((2-chloro-4′-fluoro-5-methoxy-3′-(trifluoromethoxy)-4-biphenylyl)(methylcarbamoyl)amino)-N-2-pyrimidinyl-3-pyridinesulfonamide], 8 nM corresponded to half-maximal inhibition (IC50).

In the case of `CNC(=O)N(c1ccc(S(=O)(=O)Nc2ccon2)cn1)c1cc(Cl)c(-c2cccc(OCC(F)(F)F)c2)cc1OC` [Example 1-37, 6-((2-chloro-5-methoxy-3′-(2,2,2-trifluoroethoxy)-4-biphenylyl)(methylcarbamoyl)amino)-N-3-isoxazolyl-3-pyridinesulfonamide], the IC50 came out at 11 nM.

Molecule `CNC(=O)N(c1ccc(S(=O)(=O)Nc2ccon2)cn1)c1cc(Cl)c(-c2ccc(F)c(F)c2)cc1OC` [Example 1-65, 6-((2-chloro-3′,4′-difluoro-5-methoxy-4-biphenylyl)(methylcarbamoyl)amino)-N-3-isoxazolyl-3-pyridinesulfonamide] registered an IC50 of 54 nM.

`CNC(=O)N(c1ccc(S(=O)(=O)Nc2ccon2)cn1)c1cc(F)c(-c2cccc(OCC(F)(F)F)c2)cc1OC` [Example 1-12, 6-((2-fluoro-5-methoxy-3′-(2,2,2-trifluoroethoxy)-4-biphenylyl)(methylcarbamoyl)amino)-N-3-isoxazolyl-3-pyridinesulfonamide] showed an IC50 of 85 nM. This IC50 is about 1.6-fold higher than that of the molecule before.

The molecule `CNC(=O)N(c1ccc(S(=O)(=O)Nc2ncco2)cn1)c1cc(F)c(-c2ccc(F)c(OC(F)(F)F)c2)cc1OC` [Example 3-14, 6-((2,4′-difluoro-5-methoxy-3′-(trifluoromethoxy)-4-biphenylyl)(methylcarbamoyl)amino)-N-1,3-oxazol-2-yl-3-pyridinesulfonamide] yielded an IC50 of 17 nM. This IC50 is about 5-fold lower than that of the molecule before.

Turning to `CNC(=O)N(c1ccc(S(=O)(=O)Nc2ccon2)cn1)c1cc(-c2cccc(F)c2)c(Cl)cc1OC` [Example 4-7, 6-((6-chloro-3′-fluoro-4-methoxy-3-biphenylyl)(methylcarbamoyl)amino)-N-3-isoxazolyl-3-pyridinesulfonamide], the IC50 came out at 891 nM.

`CNC(=O)N(c1ccc(S(=O)(=O)Nc2ccon2)cn1)c1cc(F)c(-c2cc(OC)c(F)c(OC)c2)cc1OC` [Example 1-23, 6-((2,4′-difluoro-3′,5,5′-trimethoxy-4-biphenylyl)(methylcarbamoyl)amino)-N-3-isoxazolyl-3-pyridinesulfonamide] displayed an IC50 of 151 nM.

Molecule `COc1cc(-c2ccc(Cl)c(F)c2)c(Cl)cc1N(C(N)=O)c1ccc(S(=O)(=O)Nc2ccon2)cn1` [Example 5-2, 6-(carbamoyl(2,4′-dichloro-3′-fluoro-5-methoxy-4-biphenylyl)amino)-N-3-isoxazolyl-3-pyridinesulfonamide] came in with an IC50 of 10 nM. Against the preceding molecule, the IC50 is about 15-fold lower.

In turn, `CNC(=O)N(c1ccc(S(=O)(=O)Nc2ncccn2)cn1)c1cc(F)c(-c2cc(F)c(F)c(F)c2)cc1OC` [Example 1-86, 6-((methylcarbamoyl)(2,3′,4′,5′-tetrafluoro-5-methoxy-4-biphenylyl)amino)-N-2-pyrimidinyl-3-pyridinesulfonamide] yielded an IC50 of 220 nM.

Consider `CNC(=O)N(c1ccc(S(=O)(=O)Nc2cnsn2)cn1)c1cc(Cl)c(-c2ccc(F)c(C(F)(F)F)c2)cc1OC` [Example 3-8, 6-((2-chloro-4′-fluoro-5-methoxy-3′-(trifluoromethyl)-4-biphenylyl)(methylcarbamoyl)amino)-N-1,2,5-thiadiazol-3-yl-3-pyridinesulfonamide], for which half-maximal inhibition (IC50) required 14 nM. Compared with the last molecule, the IC50 is about 16-fold lower.

The molecule `CONC(=O)N(c1ccc(S(=O)(=O)Nc2ccon2)cn1)c1cc(F)c(-c2cccc(C(F)(F)F)c2)cc1OC` [Example 1-90, 6-((2-fluoro-5-methoxy-3′-(trifluoromethyl)-4-biphenylyl)(methoxycarbamoyl)amino)-N-3-isoxazolyl-3-pyridinesulfonamide] had an IC50 of 69 nM.

As to `COc1cc(-c2cc(OC)c(N(C(N)=O)c3ccc(S(=O)(=O)Nc4ccon4)cn3)cc2Cl)cc(C(F)(F)F)c1` [Example 5-4, 6-(carbamoyl(2-chloro-3′,5-dimethoxy-5′-(trifluoromethyl)-4-biphenylyl)amino)-N-3-isoxazolyl-3-pyridinesulfonamide], it took 7 nM to reach half-maximal inhibition (IC50).

As to `CNC(=O)N(c1ccc(S(=O)(=O)Nc2ncccn2)cn1)c1cc(Cl)c(-c2ccc(Cl)c(C#N)c2)cc1OC` [Example 1-75, 6-((2,4′-dichloro-3′-cyano-5-methoxy-4-biphenylyl)(methylcarbamoyl)amino)-N-2-pyrimidinyl-3-pyridinesulfonamide], the concentration for half-maximal inhibition (IC50) is 106 nM.

In turn, `CNC(=O)N(c1ccc(S(=O)(=O)Nc2ccon2)cn1)c1cc(Cl)c(-c2ccc(F)cc2)cc1OC` [Example 1-44, 6-((2-chloro-4′-fluoro-5-methoxy-4-biphenylyl)(methylcarbamoyl)amino)-N-3-isoxazolyl-3-pyridinesulfonamide] showed an IC50 of 125 nM. This IC50 and that of the molecule before are within 1.5-fold of each other.

In the case of `CNC(=O)N(c1ccc(S(=O)(=O)Nc2ncccn2)cn1)c1cc(F)c(-c2cccc(OC(F)(F)F)c2)cc1OC` [Example 1-84, 6-((2-fluoro-5-methoxy-3′-(trifluoromethoxy)-4-biphenylyl)(methylcarbamoyl)amino)-N-2-pyrimidinyl-3-pyridinesulfonamide], it took 62 nM to reach half-maximal inhibition (IC50).

In turn, `CNC(=O)N(c1ccc(S(=O)(=O)Nc2ccon2)cn1)c1cc(Cl)c(-c2ccc(C)c(F)c2)cc1OC` [Example 1-62, 6-((2-chloro-3′-fluoro-5-methoxy-4′-methyl-4-biphenylyl)(methylcarbamoyl)amino)-N-3-isoxazolyl-3-pyridinesulfonamide] came in with a half-maximal inhibitory concentration (IC50) of 64 nM.

In turn, `CNC(=O)N(c1ccc(S(=O)(=O)Nc2ccon2)cn1)c1cc(Cl)c(-c2ccc(C)c(Cl)c2)cc1OC` [Example 1-61, 6-((2,3′-dichloro-5-methoxy-4′-methyl-4-biphenylyl)(methylcarbamoyl)amino)-N-3-isoxazolyl-3-pyridinesulfonamide] had a half-inhibitory concentration (IC50) of 20 nM.

In turn, `CNC(=O)N(c1ccc(S(=O)(=O)Nc2ccon2)cn1)c1cc(Cl)c(-c2cc(Cl)cc(OC)c2)cc1OC` [Example 1-32, 6-((2,3′-dichloro-5,5′-dimethoxy-4-biphenylyl)(methylcarbamoyl)amino)-N-3-isoxazolyl-3-pyridinesulfonamide] returned a half-inhibitory concentration (IC50) of 14 nM.

In turn, `CNC(=O)N(c1ccc(S(=O)(=O)Nc2ccon2)cn1)c1cc(Cl)c(-c2cc(OC)cc(OC)c2)cc1OC` [Example 1-64, 6-((2-chloro-3′,5,5′-trimethoxy-4-biphenylyl)(methylcarbamoyl)amino)-N-3-isoxazolyl-3-pyridinesulfonamide] gave a half-maximal inhibitory concentration (IC50) of 78 nM.

The molecule `CNC(=O)N(c1ccc(S(=O)(=O)Nc2ccon2)cn1)c1cc(Cl)c(-c2cc(F)cc(C(F)(F)F)c2)cc1OC` [Example 1-49, 6-((2-chloro-3′-fluoro-5-methoxy-5′-(trifluoromethyl)-4-biphenylyl)(methylcarbamoyl)amino)-N-3-isoxazolyl-3-pyridinesulfonamide] displayed an IC50 of 28 nM.

Regarding `CNC(=O)N(c1ccc(S(=O)(=O)Nc2ccon2)cn1)c1cc(Cl)c(C#CC2CCCC2)cc1OC` [Example 7, 6-((5-chloro-4-(cyclopentylethynyl)-2-methoxyphenyl)(methylcarbamoyl)amino)-N-3-isoxazolyl-3-pyridinesulfonamide], the IC50 stood at 68 nM.
